The test system of the data set is MDCKII cells. The data set is described as follows: Apparent permeability (Papp AB) in MDCKII cells. It is filed as in vitro ADME, Canine. The following applies: MDCKII cells, pH 7.4. The procedure: Methods and Procedure: This study was conducted in compliance with previously described procedures to assure data integrity and adherence to GLP regulations. The experiments described herein were designed to evaluate the apparent permeability (Papp) of test compounds at pH 7.4. Additionally, the MDCKII-MDR1 cell line (Madin-Darby Canine Kidney clone II cell line heterologously expressing the human P-glycoprotein transporter) and mock cell line MDCKII were used to determine whether a compound acted as a P-gp substrate, in the absence and in the presence of the potent P-gp inhibitor. Test control items (digoxin, metoprolol, and atenolol) and control P-gp inhibitor (GF120918) stock solution were prepared in DMSO. Bidirectional assays (Apical to Basolateral [AB] and Basolateral to Apical [BA]) were run, in both the absence and presence of P-gp inhibitor GF120918 in MDCKII-MDR1 and mock cell line MDCKII, using as transport buffer HBSSH at a pH of 7.4 (n=3).
Compounds were tested at a single concentration (i.e. at 3 or 10 μM) at one time point (i.e. 60 min). Alternative concentrations or time-points may also be investigated. As reference compounds, digoxin (P-gp substrate), atenolol (low permeable compound) and metoprolol (high permeable compound) were included at a single concentration (e.g., 10 or 25 μM) and at single time point (e.g., 60 min). Digoxin transport was evaluated in two directions (apical-to-basolateral [AB] and basolateral-to-apical [BA]) in the absence and presence of GF120918 or in mock cells, MDCKII (n=3). Atenolol and metoprolol were only tested in the AB direction in absence of GF120918 or in mock cells, MDCKII (n=3). The integrity of the cell monolayer was evaluated after the permeability experiment using the paracellular permeability marker Lucifer yellow (LY) in the apical to basolateral direction in each well.
MDCKII or MDCKII-MDRI cells cultivated using DMEM (high glucose, GlutaMAX™ supplemented with pyruvate, 10% FBS HI and Pen/Strep) and seeded onto microporous PET (Polyethylene Terephthalate) membranes in HTS 96-Multiwell Insert plates at density of ˜175,000-245,000 cells/cm^2 (25000-35000 cells/well; 50 μL/well) in DMEM medium and incubated for 3-4 days at 37° C.-5% CO2. Medium was changed a day before the experiment.
Stock solutions of test items were prepared in DMSO at a concentration of 5 or 10 mM and stored at −20° C. until use. The potent P-gp inhibitor, GF120918 (stock solution 10 mM) and the reference controls digoxin, atenolol, metoprolol (stock solutions 3 or 10 mM) were prepared in DMSO and stored at −20° C. until use.
Donor working solutions of test items and reference controls will be prepared at a concentration of 10 or 25 μM, diluting the stock solutions in HBSSH. Receiver working solutions contained transport buffer only. […]
MDCKII and MDCKII-MDR1 cells were preincubated (37° C., 15 to 30 minutes) in receiver working solutions containing transport buffer on apical (A) and basolateral (B) sides. Following pre-incubation, test items and control items (digoxin) transport were measured in two directions (apical to basolateral [AB]) and basolateral to apical [BA]), and these directions were performed in triplicate sets of wells, in both the absence and presence of […] GF120918 or mock MDCKII cells. […] Transport of permeability reference controls, atenolol and metoprolol, were measured in one direction (apical to basolateral [AB]) (n=3). […]

The structures appear in SMILES notation.

For `CNC(C)Cc1ccc2c(c1)OCO2` (stereo not shown) [MDMA, reference compound], the “Permeability Classification” value is on record as “high permeability”.

(Values after US12595269B2, “Morpholine-like monoamine releasers” (Solvonis Therapeutics Ireland Holdings Limited, priority 2022, dated 2026).)
